Experimental data published in a melting point compilation (Tetko et al.; mined from patent text by program, amines drawn as free bases though some values may be those of a salt).

Point of comparison: `O=C(Cc1ccccc1)NCO`, melting point 78 °C. Against it:
- O=C(NC1CCN(C2CCCCC2)C1)c1cccc2ccccc12 (stereo unspecified) — higher, 119 to 120 °C
- COc1cccc(CC(=O)O)c1OCCCc1cn(-c2ccc(C(F)(F)F)nn2)nc1C(C)(C)C — higher, 131 to 132 °C
- O=C(C(=O)c1ccc(F)cc1)c1ccncc1 — higher, 84 to 86 °C
- CS(=O)(=O)c1sccc1SCc1ccccc1 — higher, 95 to 97 °C
- CN(C)C(=O)CCCCCCCCCCCCO — lower, 69 to 71 °C
- CC(=O)OCc1ccc(N)cc1 — higher, 83 to 84 °C
- Cc1ccc(S(=O)(=O)n2ccc3c2CC(c2ccccc2)CC3=O)cc1 (stereo unspecified) — higher, 118 to 120 °C
- CN1CCCCC1CCCc1ccccc1NC(=O)C=Cc1ccccc1 (stereo unspecified) — higher, 130 to 132 °C
- CC(=O)Nc1ncc(CCc2ccc(NC(NC(=O)OC(C)(C)C)NC(=O)OC(C)(C)C)cc2)s1 — higher, 203 to 205 °C
- CCCN(c1ccncc1)N1C(=O)C(C)(C)c2ccccc21 — higher, 125 to 127 °C
- Cc1cc2c(cc1N1CCCCC1)OC(=O)C2C (stereo unspecified) — lower, 61 to 63 °C
- CC1CNc2c(C#N)cnn2C1c1cc(Cl)ccc1Cl (stereo unspecified) — higher, 184 to 185 °C
- CC(C)(CO)c1cc(OS(C)(=O)=O)ccc1O — higher, 122 to 124 °C
- CCCCCCC1CCC(C(=O)Nc2c(C(C)C)cccc2C(C)C)C(=O)O1 (stereo unspecified) — higher, 113 to 115 °C
- O=C(Nc1ccc(Cl)c(C(F)(F)F)c1)c1ccccc1[N+](=O)[O-] — higher, 165 to 169 °C
- CC(C)CCCC(C)CCCC(C)CCCC(C)(O)C(CO)NCCO (stereo unspecified) — lower, 49.1 to 50.2 °C
- COc1cccc(Oc2ccc(NC(C)=O)cc2)c1 — higher, 103 to 105 °C
- CC(=O)N[C@@H](CO)C(=O)NCc1ccccc1 — higher, 147 to 148 °C
- NC(=O)c1ccc(C(F)(F)F)cc1-c1cnccc1Oc1cccc(CCC(=O)N2CCN(Cc3ccc4c(c3)OCO4)CC2)c1 — higher, 140 to 141 °C
- COc1ccc(CSc2cc(OC)c(OC)c(OC)c2)cc1 — lower, 65 to 67 °C
- Cc1cnc2c(NC(=O)c3c(Cl)cccc3Cl)ccc(C)c2c1Cl — higher, 236 to 240 °C
- CCCCCCCc1ccc(NC2=NCCS2)cc1 — higher, 81 to 82 °C
- CCOCc1nnc2c(C(F)(F)F)c(CN[C@H]3CC[C@@H](c4ccccc4)CC3)ccn12 — higher, 137 °C
- CCOC(=O)c1nc(Cl)n2c1c(Cl)nc1ccccc12 — higher, 132 to 135 °C
- Cc1ccc(-c2ccccc2C(=O)Nc2ccc(C(=O)N3C[C@@H]4CCCN4C(=O)c4ccccc43)cc2)cc1 — higher, 230 to 232 °C
- Cn1nc(C(F)(F)F)c(CS(=O)(=O)C2=NOC(C)(CCl)C2)c1Cl (stereo unspecified) — higher, 114 to 116 °C
- CCC#CCCOc1cc(/C=C/C(=O)Nc2ccccc2C(=O)O)ccc1OC — higher, 163 to 165 °C
- CC1(CCn2c(=O)oc3ccccc32)Cn2cc([N+](=O)[O-])nc2O1 (stereo unspecified) — higher, 193 to 195 °C
- COc1ccc2cc3c(Cl)n[nH]c3nc2c1 — higher, 296 to 297 °C
- COc1ccc2c3c1OC1C(O)C(CO)(CO)CC4C(C2)N(C)CCC341 (stereo unspecified) — higher, > 265 °C
- CN1CC(c2cccc(Br)c2)=C(c2ccc(S(C)(=O)=O)cc2)C1=O — higher, 138 to 139 °C
- OCC1(c2nn(Cc3ccccc3F)c3nccnc23)CC=CO1 (stereo unspecified) — higher, 194 °C
- CC(=O)c1ccc(S(=O)(=O)n2c(CCC(=O)O)cc3cc(Cl)ccc32)cc1 — higher, 159 to 161 °C
- Cc1ccc2c(c1)C(NC(=O)CCCCl)c1ccccc1CS2(=O)=O (stereo unspecified) — higher, 203 to 204 °C
- CC(C)(C)C1=NN(c2ccc(C(=O)O)cc2)C(c2cccc(Br)c2)C1 (stereo unspecified) — higher, 216 °C
- CCOC(=O)c1cc(=O)nc2n1-c1ccccc1OC2 — higher, 174 to 175 °C
- COC(=O)C(=CN(C)C)N(C)c1nc(-c2ccc(Br)cc2)cs1 — higher, 184 to 185 °C
- O=C(O)c1ccccc1CSc1ccc(Br)cc1 — higher, 139 to 140 °C
- Cc1ccoc1C(=O)Nc1ccc(-n2nc(C(F)(F)F)cc2C(F)(F)F)cc1 — higher, 119 to 120 °C
- CCOc1ccc(C(=O)Nc2ccc(C(C)(C)C#N)cc2)cc1OCC — higher, 138 to 140 °C
- CCOC(=O)C1=C(C)NC(=S)N(C(=O)OC(C)C)C1c1cccc(Cl)c1Cl (stereo unspecified) — higher, 157 to 159 °C
- CC(C#CCCc1ccccc1)N(O)C(N)=O (stereo unspecified) — higher, 113 to 114 °C
- CC(C)(C)C(=O)OCOC(=O)[C@H]1[C@@H]2CC[C@@](N)(C(=O)O)[C@@H]21 — higher, 205 to 206 °C
- Cc1nc2c3c(c(C(=O)N(C)C)cc2[nH]1)CC[C@@H](c1ccccc1C)O3 — higher, 219 °C
- CC(=O)NNc1ccnc2c(NC(=O)c3ccccc3[N+](=O)[O-])cccc12 — higher, 232 to 235 °C
- O=C(NCCO)c1ccc([N+](=O)[O-])cc1 — higher, 134 to 135 °C
- Cc1cc(C)c(C(O)c2cccc(-n3ccnc3)c2)c(C)c1 (stereo unspecified) — higher, 191 to 193 °C
- O=C(NCc1cc[nH]c(=O)c1)c1nc2ccc(F)c(OCc3ccc(F)cc3)c2c(=O)[nH]1 — higher, 248 to 250 °C
- COC(=O)c1cc(-c2ccc(S(C)(=O)=O)cc2)n(-c2ccc(Cl)cc2)n1 — higher, 169 to 171 °C
- CCc1cnc2c(NC(=O)c3c(Cl)cccc3Cl)cccc2c1C(C)=O — higher, 194 to 195 °C
